Measured values taken from patent publication US20050282743A1, “Molecular interactions in cells” (Arbor Vita Corporation, priority 2001, published 2005).

Target: T1, TIP-1 (GST-TIP-1) (Homo sapiens, UniProt O14907, I73S)
T1 construct: made in house; host or cells: E. coli DH5alpha
T1 sequence (O14907 3-123 I73S): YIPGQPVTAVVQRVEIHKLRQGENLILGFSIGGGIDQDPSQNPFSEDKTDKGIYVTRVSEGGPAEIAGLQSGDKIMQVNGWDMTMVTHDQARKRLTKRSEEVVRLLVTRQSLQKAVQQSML
Experiment: G assay with unlabeled 8 amino acid competitor peptide (Example 4, FIGS. 2B, 2C)
Format: binding
Description: FIGS. 2A, 2B and 2C show binding and competition assays with the PDZ ligands of CD95 (Fas) and Tax for the PDZ domain of TIP-1.
Upon infection, the higher affinity of Tax could preferentially bind TIP-1 protein available in the cell, removing the TIP-1 bound to CD95 (Fas) and thereby rendering the cell less able to undergo apoptosis. In order to test this, competition experiments between Tax and CD95 for TIP-1 binding were performed using the ‘G Assay’, but adding additional unlabeled competitor peptide at step 9 of the ‘G Assay’ presented in EXAMPLE 3 section D.
FIGS. 2B and 2C show the results of these experiments. The graphs show the amount of binding of the biotinylated 20 amino acid peptide in the presence of increasing concentrations of unlabeled 8 amino acid competitor.

CC[C@H](C)[C@H](NC(=O)[C@H](CCC(N)=O)NC(=O)CCCC[C@@H]1SC[C@@H]2NC(=O)N[C@@H]21)C(=O)N[C@@H](CO)C(=O)N1CCC[C@H]1C(=O)NCC(=O)NCC(=O)N[C@@H](CC(C)C)C(=O)N[C@@H](CCC(=O)O)C(=O)N1CCC[C@H]1C(=O)N1CCC[C@H]1C(=O)N[C@@H](CO)C(=O)N[C@@H](CCC(=O)O)C(=O)N[C@@H](CCCCN)C(=O)N[C@@H](Cc1c[nH]cn1)C(=O)N[C@@H](Cc1ccccc1)C(=O)N[C@@H](CCCNC(=N)N)C(=O)N[C@@H](CCC(=O)O)C(=O)N[C@H](C(=O)N[C@@H](CCC(=O)O)C(=O)N[C@H](C(=O)O)C(C)C)[C@@H](C)O [Tax]
competition for binding to TIP-1 with labeled CD95 (FIG. 2B) (unlabeled 8 amino acid Tax competitor at 20, 100, and 500 μM, 20 μM labeled CD95 20-mer): able to compete
excess able to compete effectively for TIP-1 binding (unlabeled Tax 8-mer versus labeled CD95): 5 fold
